Entries after “also recorded” stand apart in the source; their conditions may differ.
Experiments:
[1] = tested on: E. coli BL21 Gold cells expressing TB14, BsNOS and GDH; assay: Whole-cell biotransformation (whole cell nitration system, Example 2/278); format: cell-based, Escherichia coli; settings: TB medium, analogue fed as substrate
Procedure: For analytical analysis, an HPLC column was kept at 40° C., water with 0.1% formic acid was used as solvent A and acetonitrile with 0.1% formic acid was used as solvent B. The column was eluted first with 1% solvent B for 1 min and then with a linear gradient of 1-20% solvent B in 8 min, followed by another linear gradient of 20-99% solvent B in 2 min. The column was further cleaned with 99% solvent B for 2 min and then re-equilibrated with 1% solvent B for 2 min. The flow rate was set as 1 ml/min, and the products were detected at […] with a PDA detector.
E. coli BL21 Gold cells containing pETDuet and pET28b derived plasmids were grown from glycerol stock overnight in 5 mL Luria broth with 0.1 mg/mL ampicillin and 0.05 mg/mL kanamycin (37° C., 250 rpm). The pre-culture was used to inoculate 100 mL of Terrific broth medium (0.1 mg/mL ampicillin and 0.05 mg/mL kanamycin) in a 500 mL flask; this culture was incubated at 37° C., 250 rpm to OD600=0.6-0.8. The cultures were cooled on water-ice mixture and induced with 0.5 mM IPTG, Expression was conducted at 18° C., 250 rpm, for 20 h. For the culture of E. coli BL21 Gold cells containing pACYCDuet and pET28b derived plasmids, 0.05 mg/mL chloramphenicol was used instead of 0.05 mg/mL kanamycin. The cultures were then harvested and resuspended to OD600=30 in test medium, Aliquots of the cell suspension were used in the whole cell transformation. To a test tube was added 5 mL cell suspension, 25 μL 100 mM L-Trp or L-Trp analogues, and 25 μL 100 mM L-Arg when necessary. The mixture was then incubated at different conditions. The reactions were quenched by adding equal volume of methanol and the resulting mixture was aliquoted and transferred to a microcentrifuge tube and centrifuged at 14,000 rpm for 10 minutes. The supernatant was transferred to an HPLC vial and analyzed by LC-MS.

[2] = tested on: E. coli BL21-GOLD (DE3) carrying Nitrotrp pathways (TB14, BsNOS, GDH); format: cell-based, Escherichia coli; settings: for nitration of fed analog by E. coli-II: 5 mM analog fed to fermentation medium of E. coli-II
TnaA = target: T1, TnaA (Escherichia coli, UniProt P0A853); assay: TnaA assay (in vitro, recombinant tryptophanase); format: biochemical, E. coli; settings: 0.1 μM purified TnaA, 0.5 mM substrate, 37° C., 10 min
T1 construct: made in house; host or cells: E. coli BL21-GOLD (DE3)
Procedure: The reactions contained 0.1 μM purified TnaA and 0.5 mM substrate and incubated at 37° C. for 10 min. No 4-nitro indole was produced in the enzyme reaction.
PCR amplicons were analyzed by agarose gel and extracted with GeneJET Gel Extraction Kit (Thermo). Purified PCR products and pET28b were digested with corresponding restriction enzymes, purified and then ligated to create expression constructs. Insert in the construct was sequenced to exclude potential errors introduced during PCR amplification and gene manipulation. Recombinant TnaA was prepared in E. coli BL21-GOLD (DE3). The enzyme assay (0.1 mL) contained 100 mM potassium phosphate buffer (pH 8.3), 0.2 mM pyridoxal 5-phosphate and 0.1 μM purified tnaA. The reaction mixtures were pre-warmed at 37° C. for 5 minutes, and initiated by adding 0.5 mM 1-Trp or Nitrotrp as substrate. After 10 minutes, the reactions were quenched by mixing well with 0.2 mL of methanol. After centrifugation at 14,000 rpm for 30 minutes, the supernatant was subject to HPLC analysis. All experiments were independently repeated at least twice.

T1 sequence (P0A853 whole entry): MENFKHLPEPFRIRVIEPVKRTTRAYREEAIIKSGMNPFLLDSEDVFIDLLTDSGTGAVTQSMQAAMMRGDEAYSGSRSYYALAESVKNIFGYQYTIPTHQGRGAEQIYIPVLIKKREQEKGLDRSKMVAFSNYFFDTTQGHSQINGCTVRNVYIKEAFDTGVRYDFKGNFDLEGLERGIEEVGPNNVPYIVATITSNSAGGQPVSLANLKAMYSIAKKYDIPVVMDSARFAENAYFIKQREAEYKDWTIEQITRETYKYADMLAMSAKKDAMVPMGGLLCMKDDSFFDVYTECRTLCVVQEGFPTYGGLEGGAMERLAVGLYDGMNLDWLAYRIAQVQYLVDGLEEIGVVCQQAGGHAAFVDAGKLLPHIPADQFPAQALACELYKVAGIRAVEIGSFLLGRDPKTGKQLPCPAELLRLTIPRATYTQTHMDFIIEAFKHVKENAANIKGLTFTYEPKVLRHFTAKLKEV

Row | SMILES | nitration of tryptophan analogue by whole cell nitration system [1] | nitration of fed analog by E. coli-II [2] | conversion rates in whole cell-based nitration [1] | conversion/decomposition by recombinant TnaA (TnaA) | nitration activity of the strain toward substrate (rank) ([2]; 5 mM analog fed to E. coli-II)
1 | N[C@@H](Cc1c[nH]c2cccc(F)c12)C(=O)O [Example 4-F-Trp, 4-F-Trp] | successfully nitrated | nitrated | – | – | –
2 | Cc1cccc2[nH]cc(C[C@H](N)C(=O)O)c12 [Example 4-Me-Trp, 4-Me-Trp] | successfully nitrated | nitrated | highest conversion rates | – | –
3 | N[C@@H](Cc1c[nH]c2cccc([N+](=O)[O-])c12)C(=O)O [Example 4-NO2-L-Trp, 4-NO2-L-Trp] | – | – | – | not able to decompose | –
4 | N[C@@H](Cc1c[nH]c2ccc(F)cc12)C(=O)O [Example 5-F-Trp, 5-F-Trp] | successfully nitrated | nitrated | highest conversion rates | – | –
5 | Cc1ccc2[nH]cc(C[C@H](N)C(=O)O)c2c1 [Example 5-Me-Trp, 5-Me-Trp] | successfully nitrated | nitrated | highest conversion rates | – | highest nitration activity
6 | COc1ccc2[nH]cc(C[C@H](N)C(=O)O)c2c1 [Example 5-MeO-Trp, 5-MeO-Trp] | successfully nitrated | nitrated | – | – | –
7 | N[C@@H](Cc1c[nH]c2cc(F)ccc12)C(=O)O [Example 6-F-Trp, 6-F-Trp] | successfully nitrated | nitrated | – | – | –
8 | Cc1cccc2c(C[C@H](N)C(=O)O)c[nH]c12 [Example 7-Me-Trp, 7-Me-Trp] | successfully nitrated | nitrated | – | – | –
9 | N[C@@H](Cc1c[nH]c2ccccc12)C(=O)O [L-Trp, L-tryptophan] | – | – | – | produced indole | –
10 | N[C@@H](Cc1c[nH]c2cccc([N+](=O)[O-])c12)C(=O)O [Nitrotrp] | – | – | – | does not convert; also recorded: not observed | –
11 | C[C@](N)(Cc1c[nH]c2ccccc12)C(=O)O [α-Me-Trp] | successfully nitrated | nitrated | – | – | –

— US12319946B2, “Methods for producing modified bacteria for production of nitroaromatics” (priority 2018, dated 2025)
